Consider 17 molecules from PubChem BioAssay AID228 (DTP/NCI, 2004).

This assay concerns BDF1 mice, Friend leukemia sc, tumor weight T/C. Briefly: NCI In Vivo Anticancer Drug Screen. Data for tumor model Friend Virus Leukemia (Solid) (subcutaneous) in B6D2F1 (BDF1) mice. Conditions: endpoint: mean tumor weight, higher = larger tumour. As for the experimental part:
The antitumor activity of compounds was measured in mice bearing transplantable tumors. Survival or tumor size were measured and the results are expressed as the measurement made in the treated group (T) divided by the measurement made in the vehicle treated control group (C). The tumor model used in this assay is Friend Virus Leukemia (Solid) (subcutaneous) in B6D2F1 (BDF1) mice

Setting [1] is: dose: 50.0 mg/kg/injection, schedule: Q01DX011 (ip), vehicle: saline.
The mark [2] stands for this setting: dose: 3.0 mg/kg/injection, schedule: Q01DX011 (ip), vehicle: carboxymethylcellulose (CMC).
The mark [3] stands for this setting: dose: 15.0 mg/kg/injection, schedule: Q01DX011 (ip), vehicle: carboxymethylcellulose (CMC).
Setting [4] is: dose: 5.0 mg/kg/injection, schedule: Q01DX011 (ip), vehicle: carboxymethylcellulose (CMC).
Setting [5] is: dose: 10.0 mg/kg/injection, schedule: Q01DX011 (ip), vehicle: carboxymethylcellulose (CMC).
Where [6] appears, read: dose: 25.0 mg/kg/injection, schedule: Q01DX011 (ip), vehicle: carboxymethylcellulose (CMC).
Setting [7] is: dose: 37.5 mg/kg/injection, schedule: Q01DX011 (ip), vehicle: carboxymethylcellulose (CMC).

Where “and” joins values, the source holds several entries; their conditions need not be identical. Equal values may be shown once. Inconclusive results are not listed.

For the molecule `C1CN1c1nc(N2CC2)nc(N2CC2)n1`, the T/C was 164 % of control and 233 % of control (dose: 0.05 mg/kg/injection, schedule: Q01DX011 (ip), vehicle: carboxymethylcellulose (CMC)); 161 % of control and 293 % of control (dose: 0.1 mg/kg/injection, schedule: Q01DX011 (ip), vehicle: carboxymethylcellulose (CMC)); 114 % of control (dose: 0.12 mg/kg/injection, schedule: Q01DX011 (ip), vehicle: carboxymethylcellulose (CMC)); 41 % of control (dose: 0.15 mg/kg/injection, schedule: Q01DX011 (ip), vehicle: carboxymethylcellulose (CMC)); 169 % of control and 256 % of control (dose: 0.2 mg/kg/injection, schedule: Q01DX011 (ip), vehicle: carboxymethylcellulose (CMC)); 61 % of control and 76 % of control (dose: 0.2 mg/kg/injection, schedule: Q01DX011 (ip), vehicle: saline). The T/C (dose: 0.3 mg/kg/injection, schedule: Q01DX011 (ip), vehicle: carboxymethylcellulose (CMC)) is 26 % of control; the T/C (dose: 0.3 mg/kg/injection, schedule: Q01DX011 (ip), vehicle: saline) is 49 % of control; the T/C (dose: 0.4 mg/kg/injection, schedule: Q01DX011 (ip), vehicle: carboxymethylcellulose (CMC)) is 68 % of control and 85 % of control; the T/C (dose: 0.4 mg/kg/injection, schedule: Q01DX011 (ip), vehicle: saline) is 31 % of control and 35 % of control; the T/C (dose: 0.6 mg/kg/injection, schedule: Q01DX011 (ip), vehicle: carboxymethylcellulose (CMC)) was 24 % of control.

Consider `OCC1OC(Oc2ccc(O)cc2)C(O)C(O)C1O` (stereo not given), for which the T/C (dose: 25.0 mg/kg/injection, schedule: Q01DX011 (ip), vehicle: saline) is 84 % of control; the T/C under setting [1] was 97 % of control; the T/C (dose: 100.0 mg/kg/injection, schedule: Q01DX011 (ip), vehicle: saline) was 97 % of control; the T/C (dose: 200.0 mg/kg/injection, schedule: Q01DX011 (ip), vehicle: saline) is 75 % of control.

With `NC(N)=N/N=C/C=N/N=C(N)N`, the T/C under setting [1] was 189 % of control.

On to `CCCCn1cnc2c(=S)nc(N)[nH]c21`, for which the T/C is 87 % of control (dose: 0.25 mg/kg/injection, schedule: Q01DX011 (ip), vehicle: carboxymethylcellulose (CMC)); 53 % of control (dose: 0.5 mg/kg/injection, schedule: Q01DX011 (ip), vehicle: carboxymethylcellulose (CMC)); 32 % of control and 40 % of control (dose: 1.0 mg/kg/injection, schedule: Q01DX011 (ip), vehicle: carboxymethylcellulose (CMC)); 6 % of control and 7 % of control under setting [2]; 12 % of control (dose: 7.0 mg/kg/injection, schedule: Q01DX011 (ip), vehicle: carboxymethylcellulose (CMC)); 9 % of control under setting [3].

For `Clc1ccc(C(c2ccccc2Cl)C(Cl)Cl)cc1` (stereo not given), the T/C was 163 % of control (dose: 375.0 mg/kg/injection, schedule: Q01DX011 (sc), vehicle: steriod suspending solution); 210 % of control (dose: 500.0 mg/kg/injection, schedule: Q01DX011 (sc), vehicle: steriod suspending solution); 155 % of control (dose: 750.0 mg/kg/injection, schedule: Q01DX011 (sc), vehicle: steriod suspending solution).

Consider `O=C(Nc1ccc(C2=NCCN2)cc1)c1cccc(C(=O)Nc2ccc(C3=NCCN3)cc2)c1`, for which the T/C (dose: 25.0 mg/kg/injection, schedule: Q01DX011 (ip), vehicle: water) is 72 % of control.

As for `CN(C)c1ccc(C(=C(c2ccc(N(C)C)cc2)c2ccc(N(C)C)cc2)c2ccc(N(C)C)cc2)cc1`, the T/C runs as follows: (dose: 3.0 mg/kg/injection, schedule: Q01DX011 (ip), vehicle: olive oil, sesame oil, peanut oil) 179 % of control; (dose: 6.0 mg/kg/injection, schedule: Q01DX011 (ip), vehicle: olive oil, sesame oil, peanut oil) 178 % of control and 237 % of control; (dose: 12.5 mg/kg/injection, schedule: Q01DX011 (ip), vehicle: olive oil, sesame oil, peanut oil) 178 % of control; (dose: 50.0 mg/kg/injection, schedule: Q01DX011 (ip), vehicle: olive oil, sesame oil, peanut oil) 65 % of control and 63 % of control; (dose: 200.0 mg/kg/injection, schedule: Q01DX011 (ip), vehicle: olive oil, sesame oil, peanut oil) 55 % of control; (dose: 300.0 mg/kg/injection, schedule: Q01DX011 (ip), vehicle: olive oil, sesame oil, peanut oil) 82 % of control. Also, the T/C (dose: 400.0 mg/kg/injection, schedule: Q01DX011 (ip), vehicle: olive oil, sesame oil, peanut oil) is 80 % of control.

Regarding `c1ccc(CSc2ncnc3nc[nH]c23)cc1`, the T/C is, setting by setting: under setting [4], 118 % of control; under setting [5], 90 % of control; under setting [3], 109 % of control; under setting [6], 91 % of control.

As for `O=C(Nc1ccc(C2=NCCCN2)cc1)c1ccc(C(=O)Nc2ccc(C3=NCCCN3)cc2)cc1`, the T/C reads like this: (dose: 0.75 mg/kg/injection, schedule: Q01DX011 (ip), vehicle: carboxymethylcellulose (CMC)) 121 % of control; (dose: 1.5 mg/kg/injection, schedule: Q01DX011 (ip), vehicle: carboxymethylcellulose (CMC)) 102 % of control; under setting [2], 44 % of control; (dose: 3.75 mg/kg/injection, schedule: Q01DX011 (ip), vehicle: carboxymethylcellulose (CMC)) 75 % of control; under setting [4], 42 % of control; (dose: 6.0 mg/kg/injection, schedule: Q01DX011 (ip), vehicle: carboxymethylcellulose (CMC)) 64 % of control. Further, under “dose: 7.5 mg/kg/injection, schedule: Q01DX011 (ip), vehicle: carboxymethylcellulose (CMC)”, the T/C is 10 % of control.

Regarding `CCCn1cnc2c(SCc3ccccc3Cl)nc(N)nc21`, the T/C by setting is: (dose: 50.0 mg/kg/injection, schedule: Q01DX011 (ip), vehicle: carboxymethylcellulose (CMC)) 57 % of control; (dose: 100.0 mg/kg/injection, schedule: Q01DX011 (ip), vehicle: carboxymethylcellulose (CMC)) 41 % of control; (dose: 200.0 mg/kg/injection, schedule: Q01DX011 (ip), vehicle: carboxymethylcellulose (CMC)) 12 % of control; (dose: 400.0 mg/kg/injection, schedule: Q01DX011 (ip), vehicle: carboxymethylcellulose (CMC)) 5 % of control.

For `O=C1C=Cc2ccc(O)cc2C1=O`, the T/C was 108 % of control (dose: 1.25 mg/kg/injection, schedule: Q01DX011 (ip), vehicle: carboxymethylcellulose (CMC)); 83 % of control (dose: 2.5 mg/kg/injection, schedule: Q01DX011 (ip), vehicle: carboxymethylcellulose (CMC)); 102 % of control under setting [5].

On to `CCC(c1ccc(O)cc1)C(CC)c1ccc(OC)cc1` (stereo not given), for which the T/C was 86 % of control (dose: 0.5 mg/kg/injection, schedule: Q01DX011 (sc), vehicle: steriod suspending solution); 73 % of control (dose: 1.0 mg/kg/injection, schedule: Q01DX011 (sc), vehicle: steriod suspending solution); 60 % of control and 72 % of control (dose: 3.0 mg/kg/injection, schedule: Q01DX011 (sc), vehicle: steriod suspending solution); 61 % of control and 73 % of control (dose: 6.0 mg/kg/injection, schedule: Q01DX011 (sc), vehicle: steriod suspending solution); 43 % of control (dose: 12.0 mg/kg/injection, schedule: Q01DX011 (sc), vehicle: steriod suspending solution); 54 % of control and 48 % of control (dose: 25.0 mg/kg/injection, schedule: Q01DX011 (sc), vehicle: steriod suspending solution). Besides, the T/C by setting is: (dose: 50.0 mg/kg/injection, schedule: Q01DX011 (sc), vehicle: steriod suspending solution) 38 % of control; (dose: 100.0 mg/kg/injection, schedule: Q01DX011 (sc), vehicle: steriod suspending solution) 43 % of control; (dose: 200.0 mg/kg/injection, schedule: Q01DX011 (sc), vehicle: steriod suspending solution) 36 % of control.

For the molecule `S=C(N=Nc1ccccc1)NNc1ccccc1`, the T/C under setting [7] was 92 % of control.

With `NNc1nncc2ccccc12`, the T/C by setting is: under setting [7], 108 % of control; (dose: 75.0 mg/kg/injection, schedule: Q01DX011 (ip), vehicle: carboxymethylcellulose (CMC)) 66 % of control.

`Oc1cc(CN(CCCl)CCCl)c(O)cc1CN(CCCl)CCCl`: the T/C by setting is: (dose: 0.44 mg/kg/injection, schedule: Q01DX011 (ip), vehicle: carboxymethylcellulose (CMC)) 63 % of control; (dose: 0.88 mg/kg/injection, schedule: Q01DX011 (ip), vehicle: carboxymethylcellulose (CMC)) 86 % of control.

Consider `CCOC(=O)NP(=O)(N1CC1)N1CC1`, for which the T/C reads like this: (dose: 2.87 mg/kg/injection, schedule: Q01DX011 (ip), vehicle: carboxymethylcellulose (CMC)) 78 % of control; (dose: 4.75 mg/kg/injection, schedule: Q01DX011 (ip), vehicle: carboxymethylcellulose (CMC)) 77 % of control; (dose: 9.5 mg/kg/injection, schedule: Q01DX011 (ip), vehicle: carboxymethylcellulose (CMC)) 36 % of control; (dose: 19.0 mg/kg/injection, schedule: Q01DX011 (ip), vehicle: carboxymethylcellulose (CMC)) 5 % of control.

As to `CC1(C)N=C(N)N=C(N)N1c1cccc(Br)c1`, the T/C under setting [6] was 88 % of control.
